Results from patent US20200253929A1, “TREATMENT OF EPILEPSY” (priority 2017, published 2020).

Experiments:
[1] = tested on: PTZ-induced seizures in zebrafish larvae; experiment: Zebrafish PTZ seizure model, behavioral analysis; assay type: in vivo, Danio rerio; details: for PTZ-induced seizures (seizure-like behavior): vs VHC+PTZ
Protocol: To investigate whether the isolated compounds display antiseizure activity, they were tested in the zebrafish PTZ seizure model after both an acute (2 hours) and chronic (18 hours) incubation time at their maximum tolerated concentration (MTC) (Table 1, FIG. 1).
In case no MTC was reached, 100 μg/mL was used as the test concentration. In line with studies previously reported [Baraban et al. (2005) Neurosci 131, 759-768; Afrikanova et al. (2013) PLoS One 8, e54166], addition of the GABAA-receptor antagonist PTZ to the swimming water of 7 days post-fertilization (dpf) zebrafish larvae strongly elevated larval locomotion (p≤0.001) (FIGS. 2 and 3) as a result of induced seizures (or seizure-like behavior) that were recognized as typical high-speed swimming, whirlpool-like circling, clonus-like seizures, and loss of posture, as previously described in Baraban et al cited above.
Experimental procedure was described in Afrikanova et al.(2013) PLoS One 8, e54166 and Orellana-Paucar et al. (2012) Epilepsy Behav 24, 14-22. In brief, a single 7 dpf larva (in case of 2 hours incubation) or 6 dpf larva (in case of 18 hours incubation) was placed in each well of a 96-well plate and treated with either VHC (1% DMSO) or compound (1% DMSO) in a 100 μL volume. Larvae were incubated in dark for 2 or 18 hours at 28° C., whereafter 100 μL of either VHC (embryo medium) or 40 mM PTZ (dissolved in embryo medium, 20 mM working concentration) was added to each well. Next, within 5 min the 96-well plate was placed in an automated tracking device (ZebraBox Viewpoint, France) and larval behavior was video recorded for 30 min. The complete procedure was performed in dark conditions using infrared light. Total locomotor activity was recorded by ZebraLab software (Viewpoint, France) and expressed in actinteg units, which is the sum of pixel changes detected during the defined time interval (5 min). Larval behavior was depicted as mean actinteg units/5 min during the 30 min recording period and over 5 min time intervals. Data are expressed as mean±SD or as mean ±SEM when the means of independent experiments were pooled.

[2] = target: T1, CYP3A4 (Homo sapiens, UniProt P08684); experiment: CYP450 enzyme inhibition assay, CYP3A4; assay type: in vitro ADME; details: human liver microsomes; for IC50: testosterone probe
T1 construct: containing Human Liver Microsomes (HLM) (0.5 mg/mL); from tissue; host or cells: human liver microsomes
T1 sequence (P08684 whole entry): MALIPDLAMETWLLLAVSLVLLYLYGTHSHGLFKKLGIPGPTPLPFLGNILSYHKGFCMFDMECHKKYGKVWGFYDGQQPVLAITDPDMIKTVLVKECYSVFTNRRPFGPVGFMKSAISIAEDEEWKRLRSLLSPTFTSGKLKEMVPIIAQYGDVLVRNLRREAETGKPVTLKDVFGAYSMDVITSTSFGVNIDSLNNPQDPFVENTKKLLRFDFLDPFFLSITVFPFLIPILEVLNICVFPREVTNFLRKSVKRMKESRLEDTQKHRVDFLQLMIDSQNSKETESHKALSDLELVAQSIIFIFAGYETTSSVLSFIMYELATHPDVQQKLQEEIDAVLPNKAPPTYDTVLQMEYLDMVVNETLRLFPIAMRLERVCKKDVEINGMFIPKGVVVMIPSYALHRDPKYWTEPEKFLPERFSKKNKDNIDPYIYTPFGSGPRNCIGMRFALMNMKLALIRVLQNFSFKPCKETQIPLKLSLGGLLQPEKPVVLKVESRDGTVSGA
Protocol: (§1) Protocol was based on literature [Perez-Del Palacio et al. (2017) Front Pharmacol 8, 202]. Assessment of CYP450 inhibition was conducted in 96-well plate format at 37° C. Test compounds were dissolved in DMSO/acetonitrile (2 μL) and diluted in 98 μL NADPH solution (2 mM). Reactions were started by addition of 100 μL potassium phosphate buffer (200 mM, pH 7.4) containing Human Liver Microsomes (HLM) (0.5 mg/mL). Probe reactions for CYP3A4, CYP2D6 and CYP2C9 were conducted with 50 μM testosterone, 22 μM dextromethorphan and 10 μM diclofenac for 15 min. Reactions were terminated with the addition of a quench solution (90 μL) of acetonitrile containing internal standards for LC-MS/MS determination (60 ppb cortisone, 100 ppb 4′-hydroxydiclofenac 13C6, 60 ppb levallorphan).

[3] = tested on: THLE2 cells; experiment: Cell viability MTT assay, THLE2 cells; assay type: cell-based, human; details: 24 h incubation; for IC50: read-out: Cytotoxicity THLE2 cells IC50
Protocol: Protocol was based on literature [Patel and Patel. (2011) J. App. Pharm. Sci 1, 167-171]. Three cell lines were used: a) Hep G2 (HB-8065), a well-differentiated human hepatocellular carcinoma cell line, b) THLE-2, human liver epithelial cells transformed with SV40 large T-antigen and c) SHSYSY, a thrice-cloned sub-line of a human metastatic bone tumor. Cells were seeded at a concentration of 1×10^4 cells/well in 200 μL culture medium and incubated at 37° C. in 5% CO2 using 96-well plates for 24 h. Next, the medium was replaced with medium complemented with test compounds. After another 24 h incubation, the medium was replaced by 100 μL of a MTT (3-(4,5-dimethylthiazol-2-yl)-2,5-diphenyltetrazolium bromide) solution (5 mg/mL in PBS and diluted at 0.5 mg/mL in MEM without phenol red). The plates were gently shaken and incubated for 3 hours at 37° C. in a 5% CO2 incubator. The supernatant was removed and 100 μL of 100% DMSO was added. The plates were gently shaken to solubilize the formed formazan. The absorbance was measured using a multireader (Victor2 (Wallac)) at a wavelength of 570 nm.

[4] = target: T2, CYP2C9 (Homo sapiens, UniProt P11712); experiment: CYP450 enzyme inhibition assay, CYP2C9; assay type: in vitro ADME; details: human liver microsomes; for IC50: diclofenac probe
T2 construct: containing Human Liver Microsomes (HLM) (0.5 mg/mL); from tissue; host or cells: human liver microsomes
T2 sequence (P11712 whole entry): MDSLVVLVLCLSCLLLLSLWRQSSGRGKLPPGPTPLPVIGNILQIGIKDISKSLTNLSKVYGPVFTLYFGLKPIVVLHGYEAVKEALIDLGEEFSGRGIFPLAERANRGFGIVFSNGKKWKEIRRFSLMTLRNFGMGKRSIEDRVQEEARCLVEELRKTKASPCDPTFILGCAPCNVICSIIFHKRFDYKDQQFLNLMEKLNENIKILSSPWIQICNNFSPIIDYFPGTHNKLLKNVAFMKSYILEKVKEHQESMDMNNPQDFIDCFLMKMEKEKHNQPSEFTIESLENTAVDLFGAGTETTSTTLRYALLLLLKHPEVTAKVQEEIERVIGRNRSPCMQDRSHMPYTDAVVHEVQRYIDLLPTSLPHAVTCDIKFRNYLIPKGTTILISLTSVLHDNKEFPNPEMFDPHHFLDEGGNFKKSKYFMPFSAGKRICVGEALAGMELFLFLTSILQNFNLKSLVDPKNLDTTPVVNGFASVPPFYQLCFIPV
Protocol: as §1

[5] = Plasma protein binding assay (rapid equilibrium dialysis); assay type: in vitro ADME; details: for Protein binding: rapid equilibrium dialysis, 5 μM, 5 h
Protocol: Protocol was based on literature [Kumar Singh et al. (2012)1 Bioeq. Bioay. S14]. Rapid equilibrium dialysis was performed with RED device inserts (Thermo Scientific, Meridian Rd., Rockford, Ill.) containing dialysis membrane with a molecular weight cut-off of 8,000 Daltons. Serum (200 μL) containing test compound (5 μM) was added to the serum chamber of the insert and 350 μL of buffer was added to the buffer chamber of the insert. Dialysis was done at 37° C. with shaking at 100 rpm for 5 h. Following dialysis, an aliquot of 50 μL was removed from each well (plasma and buffer side) and diluted with an equal volume of opposite matrix to nullify the matrix effect. Then a fraction (50 μL) of each dialyzed sample was crashed with 150 μL of acetonitrile containing internal standard and vortexed for 1 min. The samples were centrifuged at 13300 rpm at 4° C. for 12 min and 100 μL of supernatant was used for LC-MS/MS analysis.

Structure (SMILES) | PTZ-induced seizure behavior, concentration-response retest ([1]; at MTC, 2 hours incubation, 30 min recording, three independent experiments) | PTZ-induced seizures (seizure-like behavior) ([1]; at MTC, 2 hours of compound exposure) | CYP3A4, effect [2] | IC50 [2] [µM] | Cytotoxicity THLE2 cells, effect [3] | IC50 [3] [µM] | CYP2C9, effect [4] | IC50 [4] [µM] | Protein binding assay recovery [5] [%] | Protein binding, percentage of free drug rating [5] | Protein binding [5] [%] | Protein binding ([5]; listed as Azaspirofuran A) [%] | PTZ-induced seizure behavior, concentration-response retest ([1]; MTC, MTC/2, MTC/4, optimal incubation time, 30 min recording and 5 min intervals) | PTZ-induced seizures (seizure-like behavior) ([1]; at MTC, 18 hours of compound exposure) | Protein binding ([5]; listed as Pseurotin A2) [%]
CCc1ccc(C2=C(C)C(=O)C3(O2)C(=O)NC(OC)(C(=O)c2ccccc2)C3O)o1 (stereo not drawn) [azaspirofuran A] | lowered PTZ-induced seizure behavior to the same extent as before | significantly lowered PTZ-induced seizures | No effect | > 88 | Weak | > 50 | Weak | 47.3 | 66.7 | Low | 95 | 95.42 |  |  | 
CC/C=C\[C@H](O)[C@H](O)C1=C(C)C(=O)[C@]2(O1)C(=O)N[C@](OC)(C(=O)c1ccccc1)[C@H]2O [pseurotin A2] |  |  | No effect | > 88 | Weak | > 50 | No effect | > 88 | 100 | High | 37 |  | concentration-dependent activity | significantly lowered PTZ-induced seizures | 36.53
